From ChEMBL document CHEMBL1240324, “TRPM8 voltage sensor mutants reveal a mechanism for integrating thermal and chemical stimuli” (Nat Chem Biol, 2007)
Activity calls are given as the source filed them. The calls are words filed in the database; no cut-off is given here.

Experiments:
HEK293 = experiment: Displacement of [3H]menthol from human TRPM8 S4b_M5 mutant expressed in HEK293 cell membranes at 100 uM by scintillation counting
[1] = test system: Transient receptor potential cation channel subfamily M member 8 (Homo sapiens), Q7Z2W7 [L1009R]; settings: HEK293, 100 uM
Chain of Transient receptor potential cation channel subfamily M member 8 (Homo sapiens), Q7Z2W7 [L1009R] (Q7Z2W7 whole entry L1009R): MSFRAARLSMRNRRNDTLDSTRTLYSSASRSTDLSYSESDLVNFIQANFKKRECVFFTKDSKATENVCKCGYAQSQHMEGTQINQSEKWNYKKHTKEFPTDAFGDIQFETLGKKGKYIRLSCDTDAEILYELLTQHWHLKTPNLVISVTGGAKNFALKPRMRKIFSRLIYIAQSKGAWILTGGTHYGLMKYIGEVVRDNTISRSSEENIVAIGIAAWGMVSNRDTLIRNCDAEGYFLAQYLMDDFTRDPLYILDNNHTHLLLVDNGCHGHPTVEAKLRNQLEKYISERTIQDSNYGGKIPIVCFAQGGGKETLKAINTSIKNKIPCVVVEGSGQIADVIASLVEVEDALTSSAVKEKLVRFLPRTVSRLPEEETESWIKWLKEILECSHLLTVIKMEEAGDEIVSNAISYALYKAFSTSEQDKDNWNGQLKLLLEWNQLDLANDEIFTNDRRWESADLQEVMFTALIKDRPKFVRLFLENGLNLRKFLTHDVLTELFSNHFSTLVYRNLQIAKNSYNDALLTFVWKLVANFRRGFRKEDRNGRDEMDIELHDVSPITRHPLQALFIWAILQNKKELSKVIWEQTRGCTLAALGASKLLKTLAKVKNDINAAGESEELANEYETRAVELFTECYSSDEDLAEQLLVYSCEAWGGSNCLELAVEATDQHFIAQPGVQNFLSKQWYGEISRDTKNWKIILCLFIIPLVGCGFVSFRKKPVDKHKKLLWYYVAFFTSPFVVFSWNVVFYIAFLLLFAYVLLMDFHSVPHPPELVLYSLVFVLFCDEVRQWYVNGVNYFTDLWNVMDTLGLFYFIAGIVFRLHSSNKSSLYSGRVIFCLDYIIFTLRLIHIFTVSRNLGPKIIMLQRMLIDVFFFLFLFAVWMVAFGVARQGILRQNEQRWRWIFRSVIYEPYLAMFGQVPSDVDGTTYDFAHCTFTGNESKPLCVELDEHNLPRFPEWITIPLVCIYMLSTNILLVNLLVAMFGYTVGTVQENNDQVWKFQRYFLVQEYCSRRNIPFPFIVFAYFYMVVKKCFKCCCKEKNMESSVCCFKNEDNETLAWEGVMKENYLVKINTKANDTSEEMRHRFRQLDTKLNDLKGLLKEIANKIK

[2] = Binding affinity to human TRPM8 S4b_M mutant expressed in HEK293 cell membranes
[3] = Activity at human TRPM8 S4b_M mutant expressed in HEK293 cells assessed as compound concentration causing leftward shift of voltage for half maximal activation; type: cell-based
[4] = test system: Transient receptor potential cation channel subfamily M member 8 (Homo sapiens), Q7Z2W7 [Y745H]; settings: HEK293, 100 uM
Chain of Transient receptor potential cation channel subfamily M member 8 (Homo sapiens), Q7Z2W7 [Y745H] (Q7Z2W7 whole entry Y745H): as the sequence (Q7Z2W7 whole entry L1009R) above, with Y745H, R1009L counted along it

- inhibition [1]: Active
- EC50 [3]: 477 µM
- inhibition [4]: inactive
Structure (SMILES): CC1CCC(C(C)C)C(O)C1 (stereo not given) [MENTHOL]
- inhibition (HEK293): inactive
- Kd [2]: 220 µM
